Measured values as given in article PMC11231610, “Fatty acid binding to the human transport proteins FABP3, FABP4, and FABP5 from a Ligand’s perspective” (The Journal of Biological Chemistry, 2024).
Values joined by “and” are separate entries in the source; they are usually repeats but may differ in a detail not shown here. Identical values can stand only once. Like-named read-outs stand apart in the source and are kept apart here.

Legend:
Assay type in all cases: binding
FABP3 = molecular target: T1, FABP3 (Homo sapiens, UniProt P05413); test: CW EPR spectra and spectral simulations of spin-probed fatty acids with FABP3
T1 construct: purchased Sigma Aldrich
T1 sequence (P05413 whole entry): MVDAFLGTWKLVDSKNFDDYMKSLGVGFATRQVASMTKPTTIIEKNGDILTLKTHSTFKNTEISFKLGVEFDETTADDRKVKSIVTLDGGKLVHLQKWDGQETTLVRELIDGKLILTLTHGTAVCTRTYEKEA
Description: (§1) For a more in-depth view of the binding mechanism, CW EPR spectra of 5/16-DSA with concentration series of the FABPs were measured and simulated. […] Equal concentrations of 20 μM of each spin probe (5- and 16-DSA) were mixed with FABP concentrations of 0 to 200 μM, increasing the resulting ligand/protein ratio in the samples stepwise from 1/0 to 1/10.
(§2) To analyze the spectra quantitatively, subsequent EPR spectral simulations were performed (Fig. 2, B and C). […] For a better understanding, a first interpretation of these components is given at this point. The rotational dynamics are thought to be indirectly proportional to the strength of intermolecular interactions between fatty acid and FABP. Therefore, they are indicative of the binding state of the fatty acids. Higher rotational correlation times signalize lower ligand dynamics and stronger interactions with the protein. […] This exchange broadening can only occur if radicals are located very close distance each other, colliding with each other, leading to partial overlap of spin-bearing orbitals.
(§3) The fractions (weights) Φx of the spectral components were extracted from the EPR simulations of the concentration series and were used to calculate the concentrations of all components with Eq (1). in Figure 3. This was performed for the intermediately and strongly bound components, as well as for their sum, called totally bound 5/16-DSA, to construct binding curves for all FABPs and spin probes. […] Different fit functions were applied to the curves for a better qualitative and quantitative analysis.

FABP5 [1] = molecular target: T2, FABP5 (Homo sapiens, UniProt Q01469); test: CW EPR spectra and spectral simulations of spin-probed fatty acids with FABP5
T2 construct: purchased Sigma Aldrich
T2 sequence (Q01469 whole entry): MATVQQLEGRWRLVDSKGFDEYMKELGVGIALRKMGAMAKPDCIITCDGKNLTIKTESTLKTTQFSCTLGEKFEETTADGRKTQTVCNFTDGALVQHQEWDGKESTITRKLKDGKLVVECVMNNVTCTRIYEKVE
Description: as §1, §2, §3

FABP4 = molecular target: T3, FABP4 (Homo sapiens, UniProt P15090); test: CW EPR spectra and spectral simulations of spin-probed fatty acids with FABP4; details: 37 °C
T3 construct: purchased Sigma Aldrich
T3 sequence (P15090 whole entry): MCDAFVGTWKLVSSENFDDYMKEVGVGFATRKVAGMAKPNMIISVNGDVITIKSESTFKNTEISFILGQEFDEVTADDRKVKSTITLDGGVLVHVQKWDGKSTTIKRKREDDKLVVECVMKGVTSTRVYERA
Description: as §1, §2, §3

FABP5 [2] = molecular target: T2, FABP5; test: DHA displacement of 16-DSA from FABP5 by CW EPR; details: FABP5/16-DSA/DHA up to 20/20/100
Text: In a second addition during revision, we were curious about the question of whether our model ligands that bind with medium affinity to the FABP binding pocket will be displaced when we add a native ligand with higher affinity and whether we could detect this displacement with our CW EPR setup. The native ligand DHA was chosen for this displacement analysis since it is well-known to bind with high affinity to FABP5 ([26]). DHA was pre-dissolved in ethanol, diluted into buffer, and mixed with FABP5 and 16-DSA. […] Samples with FABP5/16-DSA/DHA ratios 20/20/0, 20/20/5, 20/20/10, 20/20/20, 20/20/50, and 20/20/100 were prepared with 5 min incubation time in between 16-DSA and DHA addition. […] We assume that the well-known high binding affinity of DHA refers to the state of strong binding within the pocket. […] Instead, a dynamic exchange of ligands seems to occur, as we consistently observe it with albumins from different species. However, this part opens the way to other future competitive binding assays via CW EPR spectroscopy, e.g., with pharmaceuticals that bind to FABPs.
CW EPR spectroscopic measurements were performed at X-band frequencies (∼9.4 GHz) with a benchtop spectrometer Magnettech MS-5000 (Freiberg Instruments GmbH, now Bruker Biospin). The samples were prepared in low-binding PCR tubes (250 μl). Protein and 5/16-DSA solutions were mixed with HEPES/NaCl buffer at pH 7.5, to obtain samples with a constant 5/16-DSA concentration of 20 μM and varying FABP concentrations of 200, 100, 50, 35, 25, 20, 15, 10 and 5 μM. After an incubation time of 20 min, the samples were transferred into glass capillaries, which were sealed with ‘Critoseal’. At first, solutions with 20 μM of 5/16-DSA were measured as references at 37 °C. The concentration series of FABP with 20 μM 5/16-DSA were measured at 37 °C, directly after preparation. Afterward, the sample capillaries were stored at 4 °C, and subsequent temperature-dependent measurements were performed. […]

[3] = 37 °C, 20 μM spin probe, EPR binding curve, read-out: KD,T,75′ (fit), apparent KD read at 75% totally bound
[4] = Fig. 2B, 20 μM 5-DSA with 100 μM FABP3
[5] = Hill fit of EPR binding curve, totally bound, 37 °C
[6] = Hill fit, totally bound (T), y = bound 5/16-DSA
[7] = read-out: KD,T,50′ (fit), apparent KD read at 50% totally bound, 37 °C, 20 μM spin probe, EPR binding curve

SMILES: CCCCCCCCCCCCCC1(CCCC(=O)O)OCC(C)(C)N1[O] (stereo not shown) [5-DSA, 5-DOXYL stearic acid]
- Kd (FABP3; 37 °C, 20 μM FABP3, 20 μM spin probe, read-out: KD,T,20μM (calculated, totally bound)): 0.82 ± 0.65 µM
- Kd (FABP3; [3]): 17.4 ± 0.2 µM
- Kd (FABP3; 37 °C, 50 μM FABP3, 20 μM spin probe, read-out: KD,T,50μM (calculated, totally bound)): 2.44 ± 1.87 µM
- ΔGF−I,100μM (free to intermediately bound) (FABP3; 37 °C, 100 μM FABP3): -6.84 ± 0.22 kcal/mol
- ΔGF−S,100μM (free to strongly bound) (FABP3; 37 °C, 100 μM FABP3): -4.4 ± 0.048 kcal/mol
- ΔGF−T,100μM (free to totally bound) (FABP3; 37 °C, 100 μM FABP3): -8.08 ± 0.813 kcal/mol
- ΔGI−S,100μM (intermediately to strongly bound) (FABP3; 37 °C, 100 μM FABP3): 1.27 ± 0.072 kcal/mol
- Kd (FABP3; 37 °C, 100 μM FABP3, 20 μM spin probe, read-out: KD,T,100μM (calculated, totally bound)): 2.06 ± 2.68 µM
- aiso, component (1) free (FABP3; 37 °C, EPR simulation): 44.1 MHz
- aiso, component (2) intermediately bound (FABP3; 37 °C, EPR simulation): 42.9 MHz
- aiso, component (3) strongly bound (FABP3; 37 °C, EPR simulation): 41.3 MHz
- τc,iso, component (1) free (FABP3; 37 °C, EPR simulation): 0.1 ns
- τc,iso, component (2) intermediately bound (FABP3; 37 °C, EPR simulation): 4.8–4.9 ns
- τc,iso, component (3) strongly bound (FABP3; 37 °C, EPR simulation): 17.9–19 ns
- bound molecules at complete saturation (FABP3; 37 °C, tenfold protein excess, totally bound): 100%
- rotational correlation time τc, component (1) (FABP3; [4]): 0.1 ns
- rotational correlation time τc, component (3) (FABP3; [4]): 17.8 ns
- Hill coefficient n (FABP3; [5]): 1.898 and > 1
- Hill fit k (FABP3; Hill fit, totally bound (T), x = c(FABP3)/c(5/16-DSA)): 0.475 ± 0.019
- Hill fit Vmax (FABP3; [6]): 98.766 ± 1.7
- Kd (FABP3; [7]): 9.6 ± 0.1 µM
- Kd (FABP5 [1]; 37 °C, 20 μM FABP5, 20 μM spin probe, read-out: KD,T,20μM (calculated, totally bound)): 2.05 ± 0.5 µM
- Kd (FABP5 [1]; [3]): 25 ± 0.3 µM
- Kd (FABP5 [1]; 37 °C, 50 μM FABP5, 20 μM spin probe, read-out: KD,T,50μM (calculated, totally bound)): 5.82 ± 1.14 µM
- ΔGF−I,100μM (free to intermediately bound) (FABP5 [1]; 37 °C, 100 μM FABP5): -6.14 ± 0.048 kcal/mol
- ΔGF−S,100μM (free to strongly bound) (FABP5 [1]; 37 °C, 100 μM FABP5): -4.97 ± 0.024 kcal/mol
- ΔGF−T,100μM (free to totally bound) (FABP5 [1]; 37 °C, 100 μM FABP5): -7.24 ± 0.19 kcal/mol
- ΔGI−S,100μM (intermediately to strongly bound) (FABP5 [1]; 37 °C, 100 μM FABP5): 0.621 ± 0.024 kcal/mol
- Kd (FABP5 [1]; 37 °C, 100 μM FABP5, 20 μM spin probe, read-out: KD,T,100μM (calculated, totally bound)): 7.79 ± 0.37 µM
- aiso, component (1) free (FABP5 [1]; 37 °C, EPR simulation): 44.1 MHz
- aiso, component (2) intermediately bound (FABP5 [1]; 37 °C, EPR simulation): 44.9–46.9 MHz
- aiso, component (3) strongly bound (FABP5 [1]; 37 °C, EPR simulation): 42.3–43.7 MHz
- τc,iso, component (1) free (FABP5 [1]; 37 °C, EPR simulation): 0.09–0.1 ns
- τc,iso, component (2) intermediately bound (FABP5 [1]; 37 °C, EPR simulation): 4.8 ns
- τc,iso, component (3) strongly bound (FABP5 [1]; 37 °C, EPR simulation): 17.9 ns
- totally bound fraction (FABP5 [1]; 37 °C, high FABP5 excess): 94.8%
- Hill coefficient n (FABP5 [1]; [5]): 1.109 ± 0.041 and ≈ 1
- Hill fit k (FABP5 [1]; Hill fit, totally bound (T), x = c(FABP5)/c(5/16-DSA)): 0.352 ± 0.009
- Hill fit Vmax (FABP5 [1]; [6]): 96.295 ± 0.907
- Kd (FABP5 [1]; [7]): 6.6 ± 0.1 µM
- Kd (FABP4; 20 μM FABP4, 20 μM spin probe, read-out: KD,T,20μM (calculated, totally bound)): 20.8 ± 0.8 µM
- Kd (FABP4; 20 μM spin probe, EPR binding curve, read-out: KD,T,75′ (fit), apparent KD read at 75% totally bound): 66 ± 0.7 µM
- Kd (FABP4; 50 μM FABP4, 20 μM spin probe, read-out: KD,T,50μM (calculated, totally bound)): 25.3 ± 1 µM
- ΔGF−I,100μM (free to intermediately bound) (FABP4; 100 μM FABP4): -6.19 ± 0.096 kcal/mol
- ΔGF−S,100μM (free to strongly bound) (FABP4; 100 μM FABP4): -4.85 ± 0.024 kcal/mol
- ΔGF−T,100μM (free to totally bound) (FABP4; 100 μM FABP4): -7.12 ± 0.263 kcal/mol
- ΔGI−S,100μM (intermediately to strongly bound) (FABP4; 100 μM FABP4): 0.741 ± 0.048 kcal/mol
- Kd (FABP4; 100 μM FABP4, 20 μM spin probe, read-out: KD,T,100μM (calculated, totally bound)): 9.53 ± 0.53 µM
- aiso, component (1) free (FABP4; EPR simulation): 44.1 MHz
- aiso, component (2) intermediately bound (FABP4; EPR simulation): 46.9 MHz
- aiso, component (3) strongly bound (FABP4; EPR simulation): 43.0 MHz
- τc,iso, component (1) free (FABP4; EPR simulation): 0.06–0.08 ns
- τc,iso, component (2) intermediately bound (FABP4; EPR simulation): 4.8 ns
- τc,iso, component (3) strongly bound (FABP4; EPR simulation): 17.9 ns
- Hill coefficient n (FABP4; Hill fit of EPR binding curve, totally bound): > 1
- Kd (FABP4; read-out: KD,T,50′ (fit), apparent KD read at 50% totally bound, 20 μM spin probe, EPR binding curve): 31.6 ± 0.3 µM

SMILES: CC/C=C\C/C=C\C/C=C\C/C=C\C/C=C\C/C=C\CCC(=O)O [DHA, Cis-4,7,10,13,16,19-Docosahexaenoic acid]
- bound 16-DSA with rising DHA content (FABP5 [2]): 55%
- displacement of 16-DSA (FABP5 [2]): no complete displacement of 16-DSA occurred
